The source of these data is patent publication EP0108147B1, “Use of a protoberberine alkaloid and composition containing same” (MAROKO, Peter R., priority 1982, dated 1983).

Where two headings read alike, the source gives them in different places.

A short description of one data set: in vivo. The arrangement: species or system rats. The following applies: rat. The method, then:
Preferential concentration of berberine in the heart rather than in other thoracic organs or the liver is a sine qua non for a good imaging agent. Berberine level measurements were done spectrophotometrically. The experiment consisted of injecting 3.5 mg/Kg of berberine ([…]) intravenously and killing the rats after 15 minutes, 90 minutes, 6 hours, 24 hours, 48 hours and 1 week. Each group consisted of 5-6 rats. A control group (no berberine administration) was used to determine the absorbance of the different organs at that wave length. […] It was released rapidly from the heart thus showing no significant tendency to accumulate in that organ. Its concentrate was 1, 1 and 3 pg/g in the lungs and 0.2 and 0 in the skeletal muscles or in the blood at the same time intervals.

For the next data set, the system named is dogs. The experiment in a line: Myocardial oxygen consumption (MV02) and epicardial ST segment elevation experiments. Format: in vivo. An excerpt: These changes were due to lower. myocardial oxygen consumption during the occlusion with berberine treatment. […] This is quite an advanageous therapeutic combination of properties which further distinguish the compounds used in the invention from the conventional drugs.

Data set [1] concerns anesthetized closed chest dogs. Put plainly: Association of ouabain and berberine on contractility (LV dP/dt), constant systolic pressure. Format: in vivo. The note with it: ouabain 0.03 mg/Kg i.v. bolus. The method, then: In anesthetized closed chest dogs the systolic arterial pressure was maintained constant with a reservoir full of heparinized blood (as in protocol "M" and "Z" described above) and a "pigtail" and Millar catheter were introduced into the left ventricular cavity (as in protocol "Z" and "HV", described above). All data was recorded on 8 channel polygraph (Gould Instruments) with a paper speed of 200 mm/s when necessary and at 2 mm/s constantly.

For data set [2], the system named is closed-chest anesthetized dogs. The note with it: for rise of diastolic pressure: only digitalis. The method, then: A study was carried out to examine the effects of the simultaneous administration of berberine on digitalis (i.e. ouabain) produced arrhythmias.
The experiments were conducted in closed-chest anesthetized dogs which were randomized to three groups. All received ouabain 0.03 mg/Kg as a bolus intravenously and thereafter a continuous infusion with a constant rate of 0.0006 mg/Kg/min until death. […] The second group received simultaneously berberine 1 mg/Kg intravenously as a bolus and then 0.2 mg/Kg/min as a continous infusion. The third group received berberine only after the appearance of VEA in a frequency of 50% of more of all systoles.
Moreover, the effects of intravenous bolus injection of berberine (0.4 to 1 mg/Kg) was studied (in comparison to dextrose 5% injection).

The subject of data set [3] is Mongrel dogs. Put plainly: Protocol HV: acute left ventricular failure by coronary microsphere embolization, closed chest. The data set is classed as in vivo. The following applies: ouabain 0.03 mg/kg during 30 minutes. On the procedure:
- Experiments were carried out in 21 mongrel dogs of either sex with body weight between 19 and 39 kg. Anesthesia was induced with sodium pentobarbital, 25 mg/kg of body weight intravenously, and small supplementary doses were given as necessary to maintain a constant level of anesthesia. The dogs were placed in the left lateral position and ventilation was maintained through a cuffed endotracheal tube with a volume-controlled respirator (Harvard Apparatus Co., Millis, Massachusetts). Polyethylene cannuleae were placed into the jugular and femoral veins for intravenous infusions and drug adminstration. Electrocardiograms (lead aVF) were monitored continuously throughout the experiments.
A polyethylene cannula was introduced into the aorta through the left carotid artery to record arterial pressure. (Stantham P23 ID transducer, Stantham Instruments, Inc. Oxnard, California). A Millar microtip transducer catheter (Millar Instruments, Inc., Houston, Texas) was introduced into the left ventricular cavity through the femoral artery to measure left ventricular pressures. For adjustment of zero level, left ventricular pressure was also measured through the fluid-filled lumen in the Millar catheter (Statham P23 ID transducer). The maximal rate of rise of left ventricular pressure, LV dP/dt, was recorded by means of a differentiator. All these parameters were recorded continuously on a polygraph (Gould 2800, Gould Instruments, Cleveland, Ohio). Cardiac output was determined by the thermodilution technique, using a thermistor catheter in the pulmonary artery and calculated by a cardiac output computer (Elecath, Electro- catheter Corp., Rahway, New Jersey). The coefficient of variation for duplicate CO measurements was 5%. In addition to the parameters directly obtained, total peripheral vascular resistance was calculated from the ratio of […] and cardiac output. Stroke volume was calculated by dividing cardiac output by heart rate. Heparin (Invendex) (5000 IU) was administered to avoid clotting of the catheters.
To induce acute left vetricular failure, initially the left main coronary artery was catheterized with a Judkin coronary artery catheter (7F, ISCI Cardiology and Radiology Products, Billerica, Massachusetts) under fluoroscopic control. It was introduced through a femoral artery, and polystyrene microspheres (3M Company, St. Paul, Minnesota) with a diameter of 52. 5 ± 4.0 µm (mean±SD) were injected into the coronary artery. The microspheres were used in a concentration of 1 mg (i.e., 12,000) per ml saline. The first dose of microsphere solution was 0.5 mi/kg body weight, and all subsequent doses were 0.25 ml/kg body weight, administered every 5 minutes. Administration of microspheres was discontinued when LV/dP/dt had been reduced by 30% or more when measured 4 minutes after the last dose. All dogs received prophylactic antiarrhythmic treatment with intravenous lidocaine, 1.5 mg/kg body weight as a bolus 20 min after the end of embolization, followed by a continuous infusion of […].
Forty-five minutes were allowed to elapse to verify the stability of the preparation. If Lv dP/dt or left ventricular end diastolic pressure had changed by 20% or more between 30 and 45 minutes after embolization, the dogs were excluded from this study and not randomized. Forty-five minutes after the end of embolization, the dogs were assigned randomly to three groups: a) Berberine-treated group, 0.2 mg/kg/ min, dissolved in 60 ml of a solution of 5% dextrose in water administered in a constant infusion during 30 minutes; b) ouabain-treated group, 0.03 mg/kg was administered in 60 ml of a 5% solution of dextrose in water during 30 minutes; and c) Control group, administration of 60 ml of a 5% solution of dextrose in water during 30 min. […]

Data set [4] concerns healthy adult mongrel dogs. Put plainly: Protocol M: hemodynamics in anesthetized open-chest dogs, systolic arterial pressure held constant. The data set is classed as in vivo.
For the next data set, the system named is dog. The experiment in a line: Protocol M simile: high or repetitive infusions in single dogs. The data set is classed as in vivo. On the procedure: It is noted that the dP/dt increased by 350% after the eighth dose and dF/dt by 450%.
In one dog using protocol M simile, 240 mg/Kg of berberine HCI was administered and dP/dt increased by 75%, aortic flow by 67%, heart rate fell from 150 to 114 beats/min., diastolic aortic pressure fell from 92 to 67 mmHg, and left atrial pressure fell from 8.5 to 7.5 mmHg.
When this type of experiment was repeated with tetrahydropalmatine, a first dose of 3.5 mg/Kg was given without maintaining the pressure constant and arterial pressure fell from 142/115 to 118/90 mmHg. When the second infusion was given with constant pressure, dP/dt increased by 17%.

The test system of data set [5] is Mongrel dogs. The experiment in a line: Protocol Z: continuous 35 minute infusion in anesthetized open-chest dogs, constant left ventricular pressure. The data set is classed as in vivo. On the procedure:
Mongrel dogs weighing between 15 and 25 kg were anesthetized with intravenous sodium thiamylal (20 mg/kg initially with additional doses given as needed). The dogs were intubated endotracheally, and respiration was maintained by a Harvard respirator. The chest was then opened in the fourth left intercostal space and the heart suspended temporarily in a pericardial cradle.
Aortic pressures were recorded through a polyethylene cannula introduced through the carotid artery (Statham P23 Db pressure transducer) and electrocardiogram (lead aVF) were recorded throughout the experiment on a polygraph (Gould Instruments). Another polyethylene cannula was placed in the left atrium for measurement of atrial pressure (Statham P23 Db pressure transducer). An electromagnetic flowmeter (Biotonix Laboratories) was placed around the ascending aorta and the aortic flow was recorded on a polygraph. Two catheters were inserted into the left ventricle through a femoral artery.
The first ("pigtail") served as a reference, while the second (Millar microtip transducer catheter) was connected through a Millar transducer (Millar Instruments, Houston, Texas) to the polygraph, where both left ventricular pressure curves were recorded simultaneously. The left ventricular end diastolic pressure was recorded separately through a Millar catheter. The first derivative of the left ventricular pressure (dP/dt) was obtained by electronic differentiation of the left ventricular pulse recorded through the Millar catheter.
A reservoir of blood was connected with the femoral artery in order to maintain constant left ventricular pressure during the experiment. In this protocol, similarly to protocol M, systemic arterial pressure was maintained constant in order to have accurate measurements of dP/dt which represent well left ventricular contractility when the systolic pressure is maintained constant. However, calculated total peripheral resistance will be higher (an underestimation of the fall). After stabilization of hemodynamics as reflected by continuously monitored parameters for 15 minutes, the substances to be studied were infused intravenously using a Harvard infusion pump. Registrations were made every 5 minutes at a paper speed of 200 mm/second, while all the parameters were recorded constantly at a speed of 2 mm/second. The dogs were randomly assigned to several groups: • Group a) Control - in these dogs a solution of 5% dextrose in water was infused in the same quantity as in the berberine treated animals (n = 7).
In all berberine, berberrubine coreximine and tetrahydropalmatine groiups the compounds were infused at constant rate for 35 minutes and the data analyzed at 5 minute intervals. • Group b) Berberine 0.7 mg/Kg/min (n = 10). • Group c) Berberine 0.2 mg/Kg/min (n = 7). • Group d) Berberine 0.02 mg/Kg/min (n = 7). • Group e) Berberrubine 0.2 mg/Kg/min (n = 7). • Group f) Tetrahydropalmatine 0.2 mg/Kg/min (n = 4). • Group g) Coreximine 0.2 mg/Kg/min (n = 8).
Therefore, group b, c and d were used to analyze the various effects of continuous infusion of berberine and its dose response and groups e and f and g used to examine the effects of these three other proberberines. Moreover, their effects were compared to the berberine treated dogs with the same dose (i.e. Group c).

Take `COc1ccc2cc3[n+](cc2c1OC)CCc1cc2c(cc1-3)OCO2` [berberine (S04), berberine]: the “concentrate in the liver” value in “in vivo” (15 min) is reported as 0 1l9/g. Also, the “concentrate in the liver” value in the data set “in vivo” (90 min) is reported as 6 1l9/g. For the same molecule, the “concentrate in the liver” value in “in vivo” (6 h) was 2 1l9/g. In “in vivo” (concentrate in the lungs), this molecule gave a concentration at 15 min of 0.001 ng/g, a concentration at 90 min of 0.001 ng/g and a concentration at 6 h of 0.003 ng/g.
Consider `CC(C)NCC(O)c1ccc(O)c(O)c1` (centres unmarked) [isoproterenol, reference compound], for which, in the data set on dogs (after coronary artery occlusion), the “epicardial ST segment elevations” value is “increased”. Further, the “mycardial oxygen consumption (MV02)” value in the data set with dogs (non-failing heart, dose that increases LV dP/dt similarly) is “significantly augmented”.
Take `C[C@@H]1O[C@@H](O[C@H]2C[C@@H](O)[C@]3(CO)[C@H]4[C@H](O)C[C@]5(C)[C@@H](C6=CC(=O)OC6)CC[C@]5(O)[C@@H]4CC[C@]3(O)C2)[C@H](O)[C@H](O)[C@H]1O` [ouabain, reference compound]: the “increase in dP/dt, of the initial value of peak LV dP/dt” value in data set [1] (5 minutes) amounted to 17±2%; in data set [1] (10 minutes), 24±3%; in data set [1] (15 minutes), 34±4%; in data set [1] (20 minutes) it was 36±4%; in data set [1] (25 minutes) it was 44±6%; in data set [1] (30 minutes) it was 49±7%. In addition, in data set [2] (control situation, ouabain alone), the “dose of ouabain to provoke VT” value is 0.04 mg/kg. Besides, in data set [2] (controls, ouabain alone), the “amount of ouabain that provoked VT” value amounted to 0.048 mg/kg. For the same molecule, the “hemodynamic parameters from before to 30 minutes after the start of drug administration” value with Mongrel dogs [3] is on record as “did not change any of the hemodynamic parameters”. The “flow in the descending aorta” value in data set [4] (after ouabain 0.03 mg/Kg i.v. bolus, from 1195 ± 89) is 1018 ± 93 mL/min. For the same molecule, in data set [4] (ouabain 0.03 mg/Kg i.v. bolus), the diastolic aortic pressure entry is recorded as “did not change significantly”. Also, the “increase of calculated peripheral resistance” value in data set [4] (ouabain 0.03 mg/Kg i.v. bolus) is reported as 18%. Besides, the “decrease of flow in the descending aorta” value in data set [4] (ouabain 0.03 mg/Kg i.v. bolus, 11 dogs, after the 90 minute experiments) was found to be 15%.
On to `COc1cc2c(cc1OC)[C@@H]1Cc3ccc(OC)c(OC)c3CN1CC2` [tetrahydropalmatine], for which the arterial pressure with dog (first dose 3.5 mg/Kg, pressure not held constant, from 142/115) is 118/90. The “increase of dP/dt” value with dog (second infusion, constant pressure) stood at 17%. Moreover, in the data set on Mongrel dogs [5] (0.2 mg/Kg/min), the “reduction of calculated peripheral resistance” value was “over 30%”. Also, in the data set on Mongrel dogs [5] (0.2 mg/Kg/min (Table XIII)), the “fall of heart rate (HR)” value is 5.5%.
digitalis [reference compound]: the “rise of diastolic pressure” value in data set [2] (10 minutes) was 31±9%; in data set [2] (20 minutes), 16±11%; in data set [2] (30 minutes), 34±15%; in data set [2] (60 minutes), 16±7%.
